The values that follow come from patent US8906925B2, “Pyrido[4,3-B]indoles containing rigid moieties” (Medivation Technologies, Inc., priority 2008, dated 2014).

Assay [1] relates to rat central imidazoline I2 receptor. Briefly: Central imidazoline I2 radioligand binding ([3H]Idazoxan). The protocol:
To evaluate in radioligand binding assays the activity of compounds of the invention, rat central imidazoline I2 receptor obtained from Wistar Rat cerebral cortex (Brown, C. M. et al., Br. J. Pharmacol. 99:803, 1990) in a modified Tris-HCl buffer (50 mM Tris-HCl buffer, pH 7.4, 0.5 mM EDTA) was used. Compounds of the invention were incubated with 2 nM [^3H]Idazoxan for 30 min. at 25° C. Non-specific binding was estimated in the presence of 1 μM Idazoxan. Receptor proteins were filtered and washed, the filters were then counted to determine [^3H]Idazoxan specifically bound. Compounds were screened at 1 μM or lower, using 1% DMSO as vehicle. Compounds of the invention were tested in this biochemical assay and percent inhibition of specific binding was determined.

Assay [2] has as its target T1, human recombinant serotonin (5-Hydroxytryptamine) 5-HT2B receptor (Homo sapiens, UniProt P41595).
T1 construct: expressed in transfected cells; host or cells: Chinese hamster ovary (CHO-K1) cells
Briefly: Serotonin 5-HT2B radioligand binding ([3H]LSD). To be noted: for inhibition at 0.1 µM: compound at 0.1 μM; for inhibition at 0.1 µM / inhibition at 1 µM: read-out: Inhibition of ligand binding, Serotonin 5-HT2B (percent inhibition of specific binding). The protocol: Compounds of invention were incubated with 1.2 nM [^3H]Lysergic acid diethylamide (LSD) for 60 min. at 37° C. […] Receptor proteins were filtered and washed, the filters were then counted to determine [^3H]LSD specifically bound. Compounds were screened at 1 μM or lower, using 1% DMSO as vehicle. Compounds of the invention were tested in this biochemical assay and percent inhibition of specific binding was determined. Biochemical assay results are presented as the percent inhibition of specific binding in Table 10.

In assay [3] the target is T2, human recombinant adrenergic α2C receptor (Homo sapiens, UniProt P18825).
T2 construct: expressed in transfected cells; host or cells: insect Sf9 cells
T2 sequence (P18825 1-462): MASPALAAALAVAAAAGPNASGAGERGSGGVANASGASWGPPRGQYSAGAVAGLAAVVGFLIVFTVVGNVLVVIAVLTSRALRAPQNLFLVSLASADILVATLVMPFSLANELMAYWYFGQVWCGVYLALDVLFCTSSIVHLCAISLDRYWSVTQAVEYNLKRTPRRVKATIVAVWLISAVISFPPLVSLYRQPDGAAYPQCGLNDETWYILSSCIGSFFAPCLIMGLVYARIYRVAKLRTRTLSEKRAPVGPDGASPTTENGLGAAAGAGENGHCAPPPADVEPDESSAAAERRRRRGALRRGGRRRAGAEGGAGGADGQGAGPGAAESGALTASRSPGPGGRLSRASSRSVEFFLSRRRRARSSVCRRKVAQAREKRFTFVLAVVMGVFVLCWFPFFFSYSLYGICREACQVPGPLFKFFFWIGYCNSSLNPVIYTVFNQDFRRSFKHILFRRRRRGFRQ
Briefly: Adrenergic α2C radioligand binding ([3H]MK-912). Conditions: compound at 1 μM. The protocol:
To evaluate in radioligand binding assays the activity of compounds of the invention, human recombinant adrenergic α2C receptor expressed in insect Sf9 cells (Uhlen S et al. J Pharmacol Exp Ther. 271:1558, 1994) in a modified Tris-HCl buffer (50 mM Tris-HCl, pH 7.4, 12.5 mM MgCl2, 2 mM EDTA) was used. Compounds of the invention were incubated with 1 nM [^3H]MK-912 for 60 min. at 25° C. Non-specific binding was estimated in the presence of […] WB-4101. Receptor proteins were filtered and washed, the filters were then counted to determine [^3H]MK-912 specifically bound. Compounds were screened at 1 μM or lower, using 1% DMSO as vehicle. Compounds of the invention were tested in this biochemical assay and percent inhibition of specific binding was determined.

In assay [4] the target is T3, rat adrenergic α1B receptor (Rattus norvegicus, UniProt P15823).
T3 construct: from tissue; host or cells: Wistar rat liver
T3 sequence (P15823 1-515): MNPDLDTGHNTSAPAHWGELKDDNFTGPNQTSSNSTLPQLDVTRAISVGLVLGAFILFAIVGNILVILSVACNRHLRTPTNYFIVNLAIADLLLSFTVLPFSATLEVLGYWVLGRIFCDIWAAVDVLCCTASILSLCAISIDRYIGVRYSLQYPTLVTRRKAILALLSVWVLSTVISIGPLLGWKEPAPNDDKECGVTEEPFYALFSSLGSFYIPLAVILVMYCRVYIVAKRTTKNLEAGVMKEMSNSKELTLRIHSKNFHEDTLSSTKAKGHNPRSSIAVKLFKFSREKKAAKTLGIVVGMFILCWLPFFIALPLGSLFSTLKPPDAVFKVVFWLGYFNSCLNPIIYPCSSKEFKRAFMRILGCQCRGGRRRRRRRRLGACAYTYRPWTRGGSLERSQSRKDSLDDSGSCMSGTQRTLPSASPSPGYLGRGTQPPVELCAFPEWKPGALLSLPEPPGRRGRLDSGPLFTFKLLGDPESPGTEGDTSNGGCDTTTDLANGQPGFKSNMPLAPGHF
Briefly: Adrenergic α1B radioligand binding ([3H]Prozosin). Conditions: compound at 1 μM. The protocol:
To evaluate in radioligand binding assays the activity of compounds of the invention, rat adrenergic α1B receptor obtained from Wistar Rat liver (Garcia-S'ainz, J. A. et al., Biochem. Biophys. Res. Commun. 186:760, 1992; Michel A. D. et al., Br. J. Pharmacol. 98:883, 1989) in a modified Tris-HCl buffer (50 mM Tris-HCl buffer, pH 7.4, 0.5 mM EDTA) was used. Compounds of the invention were incubated with 0.25 nM [^3H]Prozosin for 60 min. at 25° C. Non-specific binding was estimated in the presence of 10 μM phentolamine. Receptor proteins were filtered and washed, the filters were then counted to determine [^3H]Prozosin specifically bound. Compounds were screened at 1 μM or lower, using 1% DMSO as vehicle. Compounds of the invention were tested in this biochemical assay and percent inhibition of specific binding was determined.

Assay [5] addresses T4, human recombinant serotonin (5-Hydroxytryptamine) 5-HT5A receptor (Homo sapiens, UniProt P47898).
T4 construct: expressed in transfected cells; host or cells: Chinese hamster ovary (CHO-K1) cells
Briefly: Serotonin 5-HT5A radioligand binding ([3H]LSD). On the procedure:
Compounds of the invention are incubated with 1.7 nM [^3H]Lysergic acid diethylamide (LSD) for 60 min. at 37° C. […] Receptor proteins are filtered and washed, the filters are counted to determine [^3H]LSD specifically bound. Compounds are screened at 1 μM or lower, using 1% DMSO as vehicle. Compounds of the invention are tested in this biochemical assay and percent inhibition of specific binding is determined.

The mark [6] stands for this setting: percent inhibition of specific binding, 1 µM.
Where [7] appears, read: percent inhibition of specific binding, read-out: Inhibition of ligand binding, Adrenergic α2C.
Setting [8] is: percent inhibition of specific binding, read-out: Inhibition of ligand binding, Adrenergic α1B.
Where [9] appears, read: compound at 1 μM, read-out: Inhibition of ligand binding, Serotonin 5-HT5A (percent inhibition of specific binding).

Values joined by “and” are separate entries in the source; they are usually repeats but may differ in a detail not shown here. Identical values can stand only once. Like-named read-outs stand apart in the source and are kept apart here.

T1 sequence (P41595 whole entry): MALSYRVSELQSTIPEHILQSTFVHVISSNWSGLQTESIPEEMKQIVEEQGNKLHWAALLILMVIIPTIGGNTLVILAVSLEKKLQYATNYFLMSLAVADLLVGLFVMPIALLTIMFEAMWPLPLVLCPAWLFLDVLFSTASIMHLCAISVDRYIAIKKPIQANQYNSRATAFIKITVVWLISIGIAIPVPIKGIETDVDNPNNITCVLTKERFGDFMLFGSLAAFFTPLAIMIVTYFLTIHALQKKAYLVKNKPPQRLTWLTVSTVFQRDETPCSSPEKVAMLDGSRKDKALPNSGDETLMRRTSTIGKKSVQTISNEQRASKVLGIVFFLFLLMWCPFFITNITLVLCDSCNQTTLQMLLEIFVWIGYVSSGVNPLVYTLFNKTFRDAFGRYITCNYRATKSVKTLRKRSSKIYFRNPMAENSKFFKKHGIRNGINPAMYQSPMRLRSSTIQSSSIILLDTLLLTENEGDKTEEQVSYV
T4 sequence (P47898 whole entry): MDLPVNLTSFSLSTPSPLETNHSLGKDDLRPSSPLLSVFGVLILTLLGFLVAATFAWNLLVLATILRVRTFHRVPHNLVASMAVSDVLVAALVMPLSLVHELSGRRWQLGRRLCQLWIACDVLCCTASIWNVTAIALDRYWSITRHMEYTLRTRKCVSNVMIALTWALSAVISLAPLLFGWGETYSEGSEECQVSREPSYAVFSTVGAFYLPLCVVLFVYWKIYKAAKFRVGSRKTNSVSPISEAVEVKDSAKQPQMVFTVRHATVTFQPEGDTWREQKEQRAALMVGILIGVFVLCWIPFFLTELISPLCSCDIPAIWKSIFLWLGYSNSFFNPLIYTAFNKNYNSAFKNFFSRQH

On to `Cc1ccc(C(O)Cn2c3c(c4cc(C)ccc42)CN(C)CC3)cc1` (racemic) [Compound 43, racemic-2-(1,2,3,4-tetrahydro-2,8-dimethylpyrido[4,3-b]indol-5-yl)-1-p-tolylethanol], for which, in assay [1] (1 µM), the “Imidazoline I2 Central (1 μM), percent inhibition of specific binding” value was 76% and 79%. In addition, the inhibition at 0.1 µM in assay [2] is -2%; in assay [5] (compound at 0.1 μM, read-out: Inhibition of ligand binding, Serotonin 5-HT5A (percent inhibition of specific binding)), 19%. In assay [2] (compound at 1 μM, 1 µM), the “Inhibition of ligand binding, Serotonin 5-HT2B (percent inhibition of specific binding)” value was determined as 77%. For the same compound, the inhibition at 1 µM worked out at 70% in assay [2] (compound at 1 μM), 100% in assay [3] (setting [7]), 97% in assay [4] (setting [8]) and 61% in assay [5] (setting [9]). For the same compound, in assay [3] (setting [6]), the “Inhibition of ligand binding, Adrenergic α2C” value is on record as 94%. Moreover, in assay [4] (setting [6]), the “Inhibition of ligand binding, Adrenergic α1B” value came to 96%. Further, in assay [5] (compound at 1 μM, 1 µM), the “Inhibition of ligand binding, Serotonin 5-HT5A (percent inhibition of specific binding)” value was determined as 73%.

In the case of `Cc1ccc2c(c1)c1c(n2CC#Cc2ccccn2)CCN(C)C1` [Compound No. 500, 2,3,4,5-tetrahydro-2,8-dimethyl-5-(3-(pyridin-2-yl)prop-2-ynyl)-1H-pyrido[4,3-b]indole], the “Imidazoline I2 Central (1 μM), percent inhibition of specific binding” value in assay [1] is listed as 54%. In addition, the inhibition at 1 µM is 34% in assay [2] (compound at 1 μM); 43% in assay [3] (1 nM [3H]MK-912, read-out: Inhibition of ligand binding, Adrenergic α2C (percent inhibition of specific binding)); 27% in assay [4] (read-out: Inhibition of ligand binding, Adrenergic α1B (percent inhibition of specific binding)); 23% in assay [5] (setting [9]).

Consider `CCN1CCc2c(c3ccccc3n2CC(O)c2ccc(C)cc2)C1` (racemic) [Compound 44, racemic-2-(2-ethyl-1,2,3,4-tetrahydropyrido[4,3-b]indol-5-yl)-1-p-tolylethanol], for which, in assay [1], the “Imidazoline I2 Central (1 μM), percent inhibition of specific binding” value was 46%. Also, the inhibition at 1 µM in assay [2] (compound at 1 μM) was determined as 11%; in assay [3] (setting [7]), 35%; in assay [4] (setting [8]), 38%; in assay [5] (setting [9]), 0%.

For `Cc1ccc2[nH]c3c(c2c1)CN(C)CC3` [Compound 3, 2,8-Dimethyl-2,3,4,5-tetrahydro-1H-pyrido[4,3-b]indole], the “Imidazoline I2 Central (1 μM), percent inhibition of specific binding” value in assay [1] is listed as 58%.

In the case of `C/C(=C\n1c2c(c3cc(Cl)ccc31)CN(C)CC2)c1ccc(F)cc1` [Compound 83, (E)-8-chloro-5-(2-(4-fluorophenyl)prop-1-enyl)-2,3,4,5-tetrahydro-2-methyl-1H-pyrido[4,3-b]indole], the “Imidazoline I2 Central (1 μM), percent inhibition of specific binding” value in assay [1] was determined as 85%. Moreover, the inhibition at 1 µM stood at 88% in assay [2] (compound at 1 μM), 99% in assay [3] (setting [7]), 96% in assay [4] (setting [8]) and 97% in assay [5] (setting [9]).

`Cc1ccc(C(O)Cn2c3c(c4ccccc42)CN(C)CC3)cc1` (racemic) [Compound 53, racemic-2-(1,2,3,4-tetrahydro-2-methylpyrido[4,3-b]indol-5-yl)-1-p-tolylethanol]: the “Imidazoline I2 Central (1 μM), percent inhibition of specific binding” value in assay [1] is recorded as 78%. Besides, the inhibition at 1 µM in assay [2] (compound at 1 μM) was 23%; in assay [3] (setting [7]), 82%; in assay [4] (setting [8]) it was 66%; in assay [5] (setting [9]), 26%.

With `CCN1CCc2c(c3cc(C)ccc3n2CC(O)c2ccc(C)cc2)C1` (racemic) [Compound 51, racemic-2-(2-ethyl-1,2,3,4-tetrahydro-8-methylpyrido[4,3-b]indol-5-yl)-1-p-tolylethanol], the “Imidazoline I2 Central (1 μM), percent inhibition of specific binding” value in assay [1] is 79%. In addition, the inhibition at 0.1 µM in assay [2] is 12%. Besides, the inhibition at 1 µM came to 32% in assay [2] (compound at 1 μM), 92% in assay [3] (setting [7]), 95% in assay [4] (setting [8]) and 27% in assay [5] (setting [9]).

The term inhibition denotes the relative decrease from the control value, in per cent.
